From US20240115654A1, “INTRAVENOUS ADMINISTRATION OF ENGINEERED ANTIMICROBIAL AMPHIPHILIC PEPTIDES” (priority 2021, published 2024)
Converted amounts (≈) assume the structure as drawn. Read-outs that look alike come from different tables or passages of the source.

Key:
[1] = test system: Acinetobacter spp. isolates (n = 104); conditions: Acinetobacter spp. (n = 104); CLSI breakpoints
Procedure: (§1) Comparator antibiotics were supplied by Micromyx, and stock solutions were prepared on the first day of testing using solvents recommended by CLSI (1). Stock solutions of all compounds were made at 40× the final testing concentration and stored at −80° C. prior to testing. Information regarding compound source, catalog and lot number, testing concentrations and drug diluent for the comparators and test agent are detailed below in Table 3.
(§2) The test organisms evaluated in this study consisted of clinical isolates from the Micromyx Repository and reference isolates from the American Type Culture Collection (ATCC; Manassas, VA). The clinical isolates were obtained from USA hospitals. Upon initial receipt at Micromyx, the organisms were sub-cultured onto an appropriate agar medium. Following incubation, colonies were harvested from these plates and cell suspensions prepared and frozen at −80° C. with a cryoprotectant. Prior to testing, the isolates were streaked from frozen vials onto Trypticase Soy Agar with 5% sheep blood (Becton Dickenson [BD]; Sparks, MD; Lot Nos. 7173618, 7166759, 7208688, 72144895, 7228505 and Remel Lenexa, KS Lot No. 212574). Plates were incubated at 35° C. overnight.
(§3) Mueller Hinton II broth (MHB II; BD; Lot Nos. 6258541 and 7143896) was used for MIC testing of aerobic organisms.
(§4) MIC values were determined using a broth microdilution procedure described by CLSI (1, 3). Automated liquid handlers (Multidrop 384, Labsystems, Helsinki, Finland; Biomek 2000 and Biomek FX, Beckman Coulter, Fullerton CA) were used to conduct serial dilutions and liquid transfers.
(§5) To prepare the drug mother plates, which would provide the serial drug dilutions for the replicate daughter plates, the wells of columns 2-12 of standard 96-well microdilution plates (Costar 3795) were filled with 150 μl of the designated diluent for each row of drug. The test articles and comparator compounds (300 μl at 40× the highest concentration to be tested) were dispensed into the appropriate wells in column 1. The Biomek 2000 was then used to make 2-fold serial dilutions in the mother plates from column 1 through column 11. The wells of Column 12 contained no drug and served as the organism growth control wells for the assay.
(§6) The daughter plates were loaded with 185 μL per well of MHB II using the Multidrop 384. The daughter plates were completed on the Biomek FX instrument which transferred 5 μL of drug solution from each well of a mother plate to the corresponding well of each daughter plate in a single step. A standardized inoculum of each test organism was prepared per CLSI methods (1). The inoculum for each organism was dispensed into sterile reservoirs divided by length (Beckman Coulter), and the Biomek 2000 was used to inoculate the plates. Daughter plates were placed on the Biomek 2000 work surface in reverse orientation so that inoculation took place from low to high drug concentration.
(§7) Plates were stacked 3-4 high, covered with a lid on the top plate, placed in plastic bags, and incubated at 35° C. for 16 to 20 hrs. Following incubation, the microplates were removed from the incubator and viewed from the bottom using a plate viewer. […] The MIC was read and recorded as the lowest concentration of drug that inhibited visible growth of the organism.
(§8) Clinical breakpoints to determine percent resistance within a given organism group were obtained from CLSI (3), with the exception of colistin for K. pneumoniae, Enterobacter spp., and E. coli, which are only available from EUCAST.

[2] = test system: Escherichia coli isolates (n = 101); conditions: Escherichia coli (n = 101); CLSI breakpoints, colistin EUCAST
Procedure: as §1, §2, §3, §4, §5, §6, §7, §8

[3] = test system: Klebsiella pneumoniae isolates (n = 101)
Procedure: as §1, §2, §3, §4, §5, §6, §7, §8

[4] = test system: Pseudomonas aeruginosa isolates (n = 109); conditions: Pseudomonas aeruginosa (n = 109); CLSI breakpoints
Procedure: as §1, §2, §3, §4, §5, §6, §7, §8

[5] = test system: Enterobacter spp. isolates (Enterobacter aerogenes and E. cloacae, n = 102); experiment: organism not typed; conditions: for % R (percent of isolates resistant): CLSI breakpoints, colistin EUCAST; for MIC: read-out: Mode (MIC)
Procedure: as §1, §2, §3, §4, §5, §6, §7, §8

[6] = test system: Enterococcus faecium isolates (n = 104); experiment: microbe, parasite or virus in culture; conditions: for MIC: read-out: Mode (MIC); for % R (percent of isolates resistant): CLSI breakpoints
Procedure: as §1
as §2, with “Prior to testing, the isolates were streaked from frozen vials onto Trypticase Soy Agar with 5% sheep blood (Becton Dickenson [BD]; Sparks, MD; Lot Nos. 7173618, 7166759, 7208688, 72144895, 7228505 and Remel Lenexa, KS Lot No. 212574).” left out
MIC values were determined using a broth microdilution procedure described by CLSI (1, 3).
The test articles and comparator compounds (300 μl at 40× the highest concentration to be tested) were dispensed into the appropriate wells in column 1. The Biomek 2000 was then used to make 2-fold serial dilutions in the mother plates from column 1 through column 11. The wells of Column 12 contained no drug and served as the organism growth control wells for the assay.
as §6, with “The” for “The daughter plates were loaded with 185 μL per well of MHB II using the Multidrop 384. The”
as §7, §8

[7] = test system: Staphylococcus aureus isolates (n = 104); experiment: microbe, parasite or virus in culture; conditions: for % R (percent of isolates resistant): CLSI breakpoints
Procedure: as §1, §2, §3, §4, §5, §6, §7, §8

[8] = Klebsiella pneumoniae (n = 101), CLSI breakpoints, colistin EUCAST
[9] = Staphylococcus aureus (n = 104), all methicillin-resistant
[10] = Staphylococcus aureus (n = 104)

SMILES	% R (percent of isolates resistant) [1] [%]	% R (percent of isolates resistant) [2] [%]	% R (percent of isolates resistant) [3]	% R (percent of isolates resistant) [3, 8] [%]	% R (percent of isolates resistant) [4] [%]	MIC50 [5] [µg/mL]	MIC90 [5] [µg/mL]	% R (percent of isolates resistant) ([5]; Enterobacter spp. (n = 102)) [%]	MIC [5] [µg/mL]	MIC50 ([6]; Enterococcus faecium) [µg/mL]	MIC90 ([6]; Enterococcus faecium) [µg/mL]	MIC ([6]; Enterococcus faecium) [µg/mL]	% R (percent of isolates resistant) [7, 10] [%]	% R (percent of isolates resistant) ([6]; Enterococcus faecium (n = 104)) [%]	MIC range [7, 9] [µg/mL]	further results
NC[C@H]1O[C@H](O[C@H]2[C@H](O)[C@@H](O[C@H]3O[C@H](CO)[C@@H](O)[C@H](N)[C@H]3O)[C@H](N)C[C@@H]2N)[C@H](N)C[C@@H]1O [Tobramycin]	49.0	21.7	over 60%	59.4	7.4	0.5 (≈ 1.07 µM)	1 (≈ 2.14 µM)	3.9	0.5 (≈ 1.07 µM)							MIC range ([5]; Enterobacter spp. (n = 102)): 0.12 to 64 µg/mL
C[C@H]1COc2c(N3CCN(C)CC3)c(F)cc3c(=O)c(C(=O)O)cn1c23 [Levofloxacin]	66.3	46.5	over 60%	67.3	21.1	0.06 (≈ 0.166 µM)	0.5 (≈ 1.38 µM)	4.9	0.03 (≈ 0.083 µM)	> 8	> 8	> 8	82.7			MIC90 [7, 9]: >8 µg/mL; % R (percent of isolates resistant) ([7]; Staphylococcus aureus (n = 104), listed as levofloxacin): Over 80%
CC(C)(O/N=C(\C(=O)N[C@@H]1C(=O)N2C(C(=O)[O-])=C(C[n+]3ccccc3)CS[C@H]12)c1csc(N)n1)C(=O)O [Ceftazidime]	61.5	33.6	Over 80%	80.2	14.6	1 (≈ 1.83 µM)	> 32	36.3	> 32							
CN[C@H](CC(C)C)C(=O)N[C@H]1C(=O)N[C@@H](CC(N)=O)C(=O)N[C@H]2C(=O)N[C@H]3C(=O)N[C@H](C(=O)N[C@H](C(=O)O)c4cc(O)cc(O)c4-c4cc3ccc4O)[C@H](O)c3ccc(c(Cl)c3)Oc3cc2cc(c3O[C@@H]2O[C@H](CO)[C@@H](O)[C@H](O)[C@H]2O[C@H]2C[C@](C)(N)[C@H](O)[C@H](C)O2)Oc2ccc(cc2Cl)[C@H]1O [Vancomycin]										1 (≈ 0.69 µM)	> 32	> 32	0	47.1	0.5 to 2	MIC90 ([6]; Enterococcus faecium (n = 104)): >32 µg/mL; MIC50 ([7]; Staphylococcus aureus): 1 µg/mL (≈ 0.69 µM); MIC90 ([7]; Staphylococcus aureus): 1 µg/mL (≈ 0.69 µM); MIC ([7]; Staphylococcus aureus, read-out: Mode (MIC)): 1 µg/mL (≈ 0.69 µM)
CC(=O)NC[C@H]1CN(c2ccc(N3CCOCC3)c(F)c2)C(=O)O1 [Linezolid]										2 (≈ 5.93 µM)	4 (≈ 11.9 µM)	2 (≈ 5.93 µM)	1.9	3.8	1 to 8	MIC range ([6]; Enterococcus faecium (n = 104)): 1 to 32 µg/mL; MIC range ([6]; Enterococcus faecium (n = 104), listed as linezolid): 1 to 32 µg/mL
C[C@H]1c2cccc(O)c2C(=O)C2=C(O)[C@]3(O)C(=O)C(C(N)=O)=C(O)[C@@H](N(C)C)[C@@H]3[C@@H](O)[C@@H]21 [Doxycycline]										4 (≈ 9 µM)	16 (≈ 36 µM)	0.12 (≈ 0.27 µM)	0	25	0.06 to 8	
CCC[C@@H]1C[C@@H](C(=O)N[C@@H]([C@H]2O[C@H](SC)[C@H](O)[C@@H](O)[C@H]2O)[C@H](C)Cl)N(C)C1 [Clindamycin]										> 16	> 16	> 16	37.5			MIC90 [7, 9]: >16 µg/mL
